Measured values as given in patent US7098013B2, “Polypeptide having α-isomaltosyl-transferase activity” (Kabushiki Kaisha Hayashibara Seibutsu Kagaku Kenkyujo, priority 2000, dated 2006).

What was measured:
[1] = tested on: α-isomaltosyl-transferring enzyme; assay: Action of the purified C11 enzyme on saccharide substrates (saccharide composition by HPLC); type: biochemical, Bacillus globisporus C11; conditions: for yield of cyclotetrasaccharide in dry basis from the substrate: summary of Table 3
Procedure: An aqueous solution containing 10 mM of glucose, 6-O-α-glucosylglucose (isomaltose), 6^2-O-α-glucosylmaltose (panose), 6^3-O-α-glucosylmaltotriose (isomaltosylmaltose), 6^4-O-α-glucosylmaltotetraose, or 6^5-O-α-glucosylmaltopentaose was prepared as substrate solution. To each of the above substrate solution was added two units/mM-substrate of the purified α-isomaltosyl-transferring enzyme specimen obtained in Experiment 1-2 and incubated at 30° C. and at pH 6.0 for 12 hours. After deionizing by conventional method, the resulting reaction solutions were measured for saccharide composition on HPLC using “MCI GEL CK04SS”, a column commercialized by Mitsubishi Chemical Industries, Ltd., Tokyo, Japan, at a column temperature of 80° C. and a flow rate of 0.4 ml/min of water, and using a detector “RI-8012”, a differential refractometer commercialized by Tosho Corporation, Tokyo, Japan.

[2] = tested on: α-isomaltosyl-transferring enzyme; assay: Action of the purified N75 enzyme on saccharide substrates (saccharide composition by HPLC); type: biochemical, Bacillus globisporus N75; conditions: for yield of cyclotetrasaccharide in dry basis from the substrate: summary of Table 6
Procedure: An aqueous solution containing 10 mM of glucose, 6-O-α-glucosylglucose (isomaltose), 6^2-O-α-glucosylmaltose (panose), 6^3-O-α-glucosylmaltotriose (isomaltosylmaltose), 6^4-O-αglucosylmaltotetraose, or 6^5-O-α-glucosylmaltopentaose was prepared as substrate solution. To each of the above substrate solutions was added two units/mM-substrate of the purified α-isomaltosyl-transferring enzyme specimen obtained in Experiment 3-2 and incubated at 30° C. and at pH 6.0 for 12 hours. After deionizing by conventional method, the resulting reaction solutions were measured for saccharide composition on HPLC, disclosed in Experiment 2-1.

[3] = tested on: Bacillus globisporus C11; assay: Utilization of carbon source and acid formation, strain C11; type: cell-based; parameters: key: The symbol “+” means yes or positive; conditions: carbon source
Procedure: (§1) Physiological Properties> • (1) VP-test: Negative • (2) Indole formation: Negative • (3) Gas formation from nitric acid: Positive • (4) Hydrolysis of starch: Positive • (5) Formation of pigment: Forming no soluble pigment • (6) Urease: Positive • (7) Oxidase: Positive • (8) Catalase: Positive • (9) Growth conditions: Growing at a pH of 5.5–9.0 and a temperature of 10–35° C. • (10) Oxygen requirement: Aerobic • (11) Utilization of carbon source and acid formation

[4] = tested on: Bacillus globisporus N75; assay: Utilization of carbon source and acid formation, strain N75; type: cell-based; parameters: key: The symbol “+” means yes or positive; conditions: carbon source
Procedure: as §1

[5] = C11 enzyme 2 units/mM-substrate, 10 mM substrate, 30° C., pH 6.0, 12 hours
[6] = N75 enzyme 2 units/mM-substrate, 10 mM substrate, 30° C., pH 6.0, 12 hours

| SMILES | Content of Cyclotetrasaccharide in the reaction mixture [1, 5] [%] | Content of Isomaltose in the reaction mixture [1, 5] [%] | Content of others in the reaction mixture [1, 5] [%] | Content of the substrate itself (remaining) in the reaction mixture [1, 5] [%] | yield of cyclotetrasaccharide in dry basis from the substrate ([1]; C11 enzyme) [%] | Content of Cyclotetrasaccharide in the reaction mixture [2, 6] [%] | Content of Isomaltose in the reaction mixture [2, 6] [%] | Content of others in the reaction mixture [2, 6] [%] | Content of the substrate itself (remaining) in the reaction mixture [2, 6] [%] | yield of cyclotetrasaccharide in dry basis from the substrate ([2]; N75 enzyme) [%] | Acid formation [3] | Utilization [3] | Acid formation [4] | Utilization [4] | also measured |
| --- | --- | --- | --- | --- | --- | --- | --- | --- | --- | --- | --- | --- | --- | --- | --- |
| OC[C@H]1O[C@H](OC[C@H]2O[C@H](O[C@H]3[C@H](O)[C@@H](O)[C@@H](O[C@H]4[C@H](O)[C@@H](O)[C@@H](O[C@H]5[C@H](O)[C@@H](O)[C@@H](O[C@H]6[C@H](O)[C@@H](O)C(O)O[C@@H]6CO)O[C@@H]5CO)O[C@@H]4CO)O[C@@H]3CO)[C@H](O)[C@@H](O)[C@@H]2O)[C@H](O)[C@@H](O)[C@@H]1O (stereo partly drawn) [6^5-O-α-Glucosylmaltopentaose, 6^5-O-α-glucosylmaltopentaose] | 18.2 | 1.6 | 9.4 | 4.3 | 18.2 | 18.7 | 1.4 | 9.1 | 4.2 | 18.7 | – | – | – | – | Content of Maltotetraose in the reaction mixture [1, 5]: 66.5%; Content of Maltotetraose in the reaction mixture [2, 6]: 66.6% |
| OC[C@H]1O[C@H](OC[C@H]2O[C@H](O[C@H]3[C@H](O)[C@@H](O)[C@@H](O[C@H]4[C@H](O)[C@@H](O)C(O)O[C@@H]4CO)O[C@@H]3CO)[C@H](O)[C@@H](O)[C@@H]2O)[C@H](O)[C@@H](O)[C@@H]1O (stereo partly drawn) [6^3-O-α-Glucosylmaltotriose, 6^3-O-α-glucosylmaltotriose] | 30.8 | 2.0 | 12.4 | 4.2 | 30.8 | 30.9 | 1.9 | 12.4 | 4.5 | 30.9 | – | – | – | – | Content of Maltose in the reaction mixture [1, 5]: 50.6%; Content of Maltose in the reaction mixture [2, 6]: 50.3% |
| OC[C@H]1O[C@@H](O[C@H]2[C@H](O)[C@@H](O)C(O)O[C@@H]2CO)[C@H](O)[C@@H](O)[C@H]1O (some centres unmarked) [Lactose] | – | – | – | – | – | – | – | – | – | – | + | + | + | + | – |
| OC[C@H]1O[C@@](CO)(O[C@H]2O[C@H](CO)[C@@H](O)[C@H](O)[C@H]2O)[C@@H](O)[C@@H]1O [Sucrose] | – | – | – | – | – | – | – | – | – | – | + | + | + | + | – |
| OC[C@H]1O[C@H](OC[C@H]2O[C@H](O[C@H]3[C@H](O)[C@@H](O)[C@@H](O[C@H]4[C@H](O)[C@@H](O)[C@@H](O[C@H]5[C@H](O)[C@@H](O)C(O)O[C@@H]5CO)O[C@@H]4CO)O[C@@H]3CO)[C@H](O)[C@@H](O)[C@@H]2O)[C@H](O)[C@@H](O)[C@@H]1O (stereo partly drawn) [6^4-O-α-Glucosylmaltotetraose, 6^4-O-α-glucosylmaltotetraose] | 25.6 | 1.9 | 8.4 | 3.4 | 25.6 | 25.8 | 1.5 | 8.6 | 3.2 | 25.8 | – | – | – | – | Content of Maltotriose in the reaction mixture [1, 5]: 60.7%; Content of Maltotriose in the reaction mixture [2, 6]: 60.9% |
| O=C[C@H](O)[C@@H](O)[C@H](O)[C@H](O)CO[C@H]1O[C@H](CO)[C@@H](O)[C@H](O)[C@H]1O [6-O-α-Glucosylglucose, 6-O-α-glucosylglucose] | – | – | – | 100 | – | – | – | – | 100 | – | – | – | – | – | product formation from the substrate ([1]; C11 enzyme): No product was detected; product formation from the substrate ([2]; N75 enzyme): No product was detected |
| OCC(O)CO [Glycerol] | – | – | – | – | – | – | – | – | – | – | + | + | + | + | – |
| OC[C@H]1O[C@H](OC[C@H]2O[C@H](O[C@H]3[C@H](O)[C@@H](O)C(O)O[C@@H]3CO)[C@H](O)[C@@H](O)[C@@H]2O)[C@H](O)[C@@H](O)[C@@H]1O (stereo partly drawn) [6^2-O-α-Glucosylmaltose, 6^2-O-α-glucosylmaltose] | 43.5 | 2.1 | 11.0 | 4.6 | 43.5 | 43.2 | 2.0 | 9.7 | 4.4 | 43.2 | – | – | – | – | Content of Glucose in the reaction mixture [1, 5]: 32.2%; Content of Isomaltosylpanose in the reaction mixture [1, 5]: 4.8%; Content of Isomaltosypanoside in the reaction mixture [1, 5]: 1.8%; Content of Glucose in the reaction mixture [2, 6]: 31.8%; Content of Isomaltosylpanose in the reaction mixture [2, 6]: 6.5%; Content of Isomaltosypanoside in the reaction mixture [2, 6]: 2.4% |
